Here are results for three compounds from patent publication US20080108582A1, “Methods And Compositions For Combinatorial Approaches To Cancer Gene Therapy” (priority 2003, published 2008).

The subject of data set [1] is CAMA-1 cells. As to the kind of experiment: MTS cytotoxicity assay. The class given is cell-based, Human. Conditions: increasing concentrations of recombinant TRAIL, 48 hours. As to the method:
(§1) MTS cytotoxicity assay. Cells were plated 2×10^4 per well in triplicate wells and incubated overnight. […] Cytotoxicity was assessed using a CellTiter 96 Non-Radioactive Cell Proliferation Assay and medium background was subtracted. Results are presented as percent of HBSS-treated control.

The subject of data set [2] is MDA-MB-231 cells. As to the kind of experiment: MTS cytotoxicity assay. The class given is cell-based, Human. To be noted: increasing concentrations of recombinant TRAIL, 48 hours. The protocol: as §1
In general terms: Tetrazolium assays rely on reduction of a dye to a coloured formazan, in cell work by metabolically active cells.

Data set [3] has as its system HCC 1937 cells. As to the kind of experiment: MTS cytotoxicity assay. In kind it is cell-based, Human. The protocol:
(§2) MTS cytotoxicity assay. Cells were plated 2×10^4 per well in triplicate wells and incubated overnight. Serial dilutions of soluble TRAIL in Hank's balanced salt solution (HBSS) were added to the wells and cells were incubated for an additional 36 hours. Cytotoxicity was assessed using a CellTiter 96 Non-Radioactive Cell Proliferation Assay and medium background was subtracted. Results are presented as percent of HBSS-treated control.

The subject of data set [4] is MCF-7 cells. As to the kind of experiment: MTS cytotoxicity assay. In kind it is cell-based, Human. As to the method:
as §2

The subject of data set [5] is HCC 1937 cells. As to the kind of experiment: Annexin V determination by flow cytometry. In kind it is cell-based, Human. To be noted: 100 ng of TRAIL for 36 hours. The protocol:
(§3) Annexin V determination. 1×10^6 cells were plated per 60 mm dish and cultured overnight. Cells were than left untreated or treated with soluble TRAIL (100 ng/ml) and incubated for additional 36 hours. Cells were than trypsinized and washed with 1× Binding Buffer. For each condition, half of the cell suspension was left untreated and another half was incubated for 15 minutes at room temperature in the dark with Annexin V. Immediately after staining, cells were analyzed by flow cytometry.
(In general: A flow cytometer gives signals particle by particle.)

Data set [6] deals with MCF-7 cells. As to the kind of experiment: Annexin V determination by flow cytometry. To be noted: 100 ng of TRAIL for 36 hours. In kind it is cell-based, Human. The protocol:
as §3

Data set [7] deals with p53-RE (p53C#18) in wild type mouse embryonic fibroblasts. As to the kind of experiment: p53 response element luciferase assay with cisplatin. Conditions: wild type MEF; increasing concentrations at the time of transfection. In kind it is cell-based. As to the method: FIG. 12. Treatment with cisplatin enhances activity of p53-RE in cells with wild type p53. Wild type and p53−/− mouse embryonic fibroblasts (MEF) were transfected with p53C#18 as described above. Increasing concentrations of cisplatin were added at the time of transfection. Luciferase assay was performed 36-48 hours later and transfection efficiency was normalized.
To determine whether treatment with cisplatin (which increases steady-state level of p53 protein) can enhance activity of the p53-RE in normal cells, wild type and p53−/− mouse embryonic fibroblasts were treated with increasing concentrations of cisplatin at the time of transfection (FIG. 12).

Data set [8] relates to mouse model. Conditions: 100 mg/kg, intra-peritoneal; cited from earlier work.

Entries after “also recorded” stand apart in the source; their conditions may differ.

On to “TRAIL: soluble TRAIL, residues 114-281 of the soluble domain of human TRAIL, expressed in E. coli (BIOMOL)”, for which the “cell viability by MTS (in words)” value in data set [1] is recorded as “significant TRAIL-dependent reduction of viability”; in data set [2], “significant TRAIL-dependent reduction of viability; also recorded: biphasic effect”. Also, the “sensitivity to TRAIL-induced apoptosis by MTS (in words)” value in data set [3] and in data set [4] was “completely resistant” each time. In addition, the “increase in Annexin V staining” value in data set [5] and in data set [6] was “approximately 17%” each time.

For `N.N.[Cl][Pt][Cl]` [Cisplatin, cisplatin], the “effect on activity of p53-RE (in words)” value in data set [7] is reported as “enhanced activity of p53C#18 in cells with wild type p53 in a dose-dependent manner”.

As to `CCc1c2c(nc3ccc(OC(=O)N4CCC(N5CCCCC5)CC4)cc13)-c1cc3c(c(=O)n1C2)COC(=O)[C@]3(O)CC` [irinotecan], in data set [8], the “drug-related toxicity (in words)” value is “without drug-related toxicity” and the “survival in a mouse model (in words)” value is on record as “prolong survival”.
